Counter-ions that a name gives are not always drawn.
What was measured:
[1] = mouse, in vivo
Description: To assess the relative toxicity of the therapies, body weights of the mice over the course of the experiment was monitored, as in the previous studies (du Manoir et al., Clin Cancer Res., 2006, 12:904-16; Francia et al., Mol Cancer Ther., 2012, 11:680-89).
Mice were monitored twice weekly for tumor growth, as measured using Vernier calipers, and calculated using the formula (length×width)/2, and for fluctuations in body weight. Institutional guidelines were followed to determine when the experimental end points were reached. Results were also plotted as event-free survival (Kaplan-Meier analysis) over time, where the duration of event-free survival was defined as time to primary tumor progression beyond 1,200 mm3 or >15% weight loss, as in the previous study (du Manoir et al., Clin Cancer Res., 2006, 12, 904-16).

EMT-6/P tumors = assay: Growth and event-free survival of subcutaneously implanted EMT-6/P tumors in BALB/c mice; format: in vivo, mouse; conditions: first experiment, FIG. 1A; s.c. EMT-6/P tumors in BALB/c mice, therapy from 50 mm3
Protocol: The combination of CTLA-4 blockade with metronomic chemotherapy regimens was evaluated. Murine EMT-6 breast tumor cells were subcutaneously implanted into syngeneic BALB/c mice (n=6-8/group) and therapies on the established tumors were evaluated. Murine CTLA-4 blockade was achieved using anti-mouse CD152 (CTLA-4), clone 9H10, injected on day 1 (100 μg/mouse) and on day 6 (35 μg/mouse) of therapy. Anti-CTLA-4 therapy was administered alone or combined with metronomic regimens. These included: (a) bolus (150 mg/kg, i.p.) CTX followed by metronomic CTX (20 mg/kg/day, p.o.), (b) metronomic CTX, and (c) sequential gemcitabine therapy (160 mg/kg every 3 days, i.p.) given when the tumors relapsed after the anti-CTLA-4 therapy.
Anti-CTLA-4 therapy combined with bolus plus low-dose CTX. To evaluate whether metronomic CTX regimens could be combined effectively with an anti-CTLA-4 treatment, a combination regimen was tested on subcutaneously implanted EMT-6/P tumors (FIG. 1A). For the chemotherapy component, a bolus with low dose CTX protocol consisting of a bolus of CTX (given on day 1 as a 150 mg/kg, i.p. injection) plus low-dose CTX (20 mg/kg/day, p.o., from day 1) was used. […]
Mice were monitored twice weekly for tumor growth, as measured using Vernier calipers, and calculated using the formula (length×width)/2, and for fluctuations in body weight. […]

SMILES | body weight change / toxicity [1] | impact of therapy on tumor growth (EMT-6/P tumors)
Nc1ccn([C@@H]2O[C@H](CO)[C@@H](O)C2(F)F)c(=O)n1 [gemcitabine, Gemcitabine hydrochloride] | slight weight drop | 
O=P1(N(CCCl)CCCl)NCCCO1 (centres unmarked) [bolus with low dose CTX, Cyclophosphamide] |  | minimal reduction in tumor growth
